These results are taken from patent publication US7736625B2, “Light stabilized in vivo stain composition and method of manufacture” (Zila, Inc., priority 2001, dated 2010).

A short description of the series: light stability of thiazine dye solution exposed to ambient incandescent light. Type of series: physicochemical. Conditions: total metal content less than 0.2 wt. %; initially deep-blue; overnight in the laboratory. The method, then: This example illustrates the light-instability of a TC product with negligible content of metal ions.
A sample of the TC product is prepared in accordance with Example 1 of my U.S. Pat. No. 6,086,852, incorporated herein by reference, and further purified by preparative high performance liquid chromatography. The total metal content of this sample is less than 0.2 wt. %.
An aliquout of this purified TC product sample is deep-blue in color.

The structures appear in SMILES notation.

Turning to `Cc1cc2nc3ccc(=[N+](C)C)cc-3sc2cc1N.[Cl-]` [TC product, tolonium chloride], the “appearance of the solution after standing overnight exposed to ambient incandescent light” value is listed as “becomes colorless”.
